For experiment [1], the system named is Streptococcus pyogenes (ATCC BAA-19615). In words: Bactericidal assay (colony count), S. pyogenes. The settings on record: 2 hours at 37° C.; concentration as low as 0.0001%; thujopsene (0.001%), totarol (0.0001%) or combination.
For a further experiment, the system named is HSV-1. In words: HSV-1 plaque assay (virus incubated with thujopsene, BS-C-1 cells). It counts as cell-based. As for the experimental part: BS-C-1 African green monkey kidney cells were seeded at 2×10^5 cells/well in 24 well plates (Becton Dickinson, Torreyana, CA) and allowed to grow to confluence overnight at 37° C., 5% CO2 in Earle's MEM with 10% fetal calf serum (FCS). To examine the effects of thujopsene, 0, 0.01, and 0.02% of thujopsene were incubated with […] HSV-1 for 2 or 4 hours, at 37° C. and 5% CO2. For the plaque assay, the medium was removed and wells were overlaid with 0.5 ml 4% buffered formalin, allowed to fix for 10 minutes at room temperature. The formalin was removed and 0.5 ml 0.1% crystal violet in PBS was added to the wells for 5 minutes at room temperature. Wells were then aspirated and the air-dried for visualization of plaques.

Experiment [2] has as its system coronavirus 229E (VR-740). In words: Coronavirus 229E-mediated destruction of human fibroblasts (microscopy). Type of experiment: cell-based. The settings on record: 229E 0.05 pfu/cell, 3 days or 5 days. As for the experimental part: Normal human lung fibroblst (ATCC.org, CCL-191) were seeded at 1×10^5 cells/well in 24 well plates (Becton Dickinson, Torreyana, CA) and allowed to grow to confluence overnight at 37° C., 5% CO2 in Earle's MEM with 10% fetal calf serum (FCS). To examine whether thujopsene prevents coronavirus (229E)-induced destruction of fibroblast, fibroblasts were incubated with thujopsene (0.00, 0.01 or 0.02%) and 229E (0.05 pfu/cell) for 3 days or 5 days at 37° C. and 5% CO2. Then cell images (x25 magnification) were taken with the microscopy (Leica, Wetzler, Germany).

The subject of a further experiment is Vaccinia virus (VV). It counts as cell-based.
For the next experiment, the system named is coronavirus (229E-VR740). Put plainly: Relative gene expression of coronavirus 229E in human fibroblasts (real time RT-PCR). It counts as cell-based. The settings on record: 0.01% or 0.02% thujopsene, 24 hours. As for the experimental part:
Human fibroblasts (Atcc.org, CCL-191) were treated with coronavirus (229E) and 0.01% or 0.02% of thujopsene for 24 hours, and then RNAs were isolated and PCRs were performed. Total RNA was isolated according to manufacturer's guidelines. RNeasy Mini Kits (Qiagen, Germantown, MD) were used according to the manufacturer's protocol to isolate RNA. RNA was reverse transcribed into cDNA using SuperScript® VILO™ MasterMix according to manufacturer's protocol and DNA was isolated according to manufacturer's guidelines. cDNAs were analyzed by real time RT-PCR by using an ABI Prism 7300 sequence detector.
Background: Quantitative PCR measures a nucleic acid by following its amplification.

Each structure is given as a SMILES string. Read-outs that look alike come from different tables or passages of the source.

As to `CC(C)c1c(O)ccc2c1CC[C@H]1C(C)(C)CCC[C@]21C` [totarol], the “Inhibition of S. Pyogenes” value in experiment [1] is reported as “significantly inhibited”.
Regarding `CC1=CC[C@]2(C)CCCC(C)(C)[C@@]23C[C@@H]13` [thujopsene], in experiment [1], the “Inhibition of S. Pyogenes” value was “significantly inhibited”. Further, the “Decrease of titers of virus” value with HSV-1 (2-hour incubation with 0.01% thujopsene) is recorded as “at least 90%”; in the experiment with HSV-1 (2-hour incubation with 0.01% thujopsene (first statement)) it was “at least 50%”; in the experiment on HSV-1 (4-hour incubation with 0.01% thujopsene) it was “at least 90%”; in the experiment with Vaccinia virus (VV) (2-hour incubation with 0.02% thujopsene) it was “at least 25%”; in the experiment with Vaccinia virus (VV) (4-hour incubation with 0.02% thujopsene), “at least 25%”. Besides, the “Cellular structure of fibroblasts after treatment with coronavirus 229E” value in experiment [2] (0.01% thujopsene) and in experiment [2] (0.02% thujopsene) was “the cellular structures were maintained” throughout. Also, the “Relative gene expression of 229E (coronavirus VR740)” value in the experiment on coronavirus (229E-VR740) (0.01 pfu/cell) and in the experiment with coronavirus (229E-VR740) (0.05 pfu/cell) was “decreased in a dose-dependent manner” each time.
